According to PubChem BioAssay (NCI):
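Test compounds were applied to cells in 96-well plates for 48 hours at 5 doses. Here, GI50 denotes the concentration required for 50% inhibition of growth. TGI: total growth inhibition.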

Key:
Assay in all cases: DTP human tumour cell line panel, 48 h
UACC-62 melanoma = test system: UACC-62 melanoma
MDA-MB-435 = test system: MDA-MB-435
ACHN renal = test system: ACHN renal
LOX IMVI melanoma = test system: LOX IMVI melanoma
SF-295 CNS = test system: SF-295 CNS
OVCAR-5 ovarian = test system: OVCAR-5 ovarian
PC-3 prostate = test system: PC-3 prostate
UO-31 renal = test system: UO-31 renal
MCF7 breast = test system: MCF7 breast
OVCAR-3 ovarian = test system: OVCAR-3 ovarian
A549 NSCLC = test system: A549 NSCLC
OVCAR-8 ovarian = test system: OVCAR-8 ovarian
NCI-H23 lung = test system: NCI-H23 lung
HT29 colon = test system: HT29 colon
OVCAR-4 ovarian = test system: OVCAR-4 ovarian
UACC-257 melanoma = test system: UACC-257 melanoma
NCI/ADR-RES ovarian = test system: NCI/ADR-RES ovarian
CCRF-CEM leukemia = test system: CCRF-CEM leukemia
SN12C renal = test system: SN12C renal
KM12 colon = test system: KM12 colon
MOLT-4 leukemia = test system: MOLT-4 leukemia
U251 CNS = test system: U251 CNS
MDA-N = test system: MDA-N
T-47D breast = test system: T-47D breast
SW-620 colon = test system: SW-620 colon
SF-268 CNS = test system: SF-268 CNS
NCI-H460 lung = test system: NCI-H460 lung
HS 578T breast = test system: HS 578T breast
CAKI-1 renal = test system: CAKI-1 renal
DU-145 prostate = test system: DU-145 prostate
786-0 renal = test system: 786-0 renal
COLO 205 colon = test system: COLO 205 colon
MDA-MB-231 breast = test system: MDA-MB-231 breast
EKVX NSCLC = test system: EKVX NSCLC
NCI-H226 lung = test system: NCI-H226 lung
SNB-75 CNS = test system: SNB-75 CNS
SR leukemia = test system: SR leukemia
M14 melanoma = test system: M14 melanoma
SK-OV-3 ovarian = test system: SK-OV-3 ovarian
SK-MEL-28 melanoma = test system: SK-MEL-28 melanoma
BT-549 breast = test system: BT-549 breast
HCT-116 colon = test system: HCT-116 colon
HL-60(TB) leukemia = test system: HL-60(TB) leukemia
HOP-62 NSCLC = test system: HOP-62 NSCLC
HCT-15 colon = test system: HCT-15 colon
K-562 leukemia = test system: K-562 leukemia
MALME-3M melanoma = test system: MALME-3M melanoma
TK-10 renal = test system: TK-10 renal
SF-539 CNS = test system: SF-539 CNS
SK-MEL-5 melanoma = test system: SK-MEL-5 melanoma
HOP-92 NSCLC = test system: HOP-92 NSCLC
RXF 393 renal = test system: RXF 393 renal
NCI-H522 lung = test system: NCI-H522 lung
A498 renal = test system: A498 renal
SNB-19 CNS = test system: SNB-19 CNS
SK-MEL-2 melanoma = test system: SK-MEL-2 melanoma
IGROV1 ovarian = test system: IGROV1 ovarian
RPMI-8226 leukemia = test system: RPMI-8226 leukemia
HCC-2998 colon = test system: HCC-2998 colon

SMILES: NC(=O)C(c1ccccc1)N1OC2C(=O)N(Cc3ccccc3)C(=O)C2C1c1cccc(Oc2ccc(Cl)cc2)c1 (stereo unspecified)
- TGI (UACC-62 melanoma): 32.3 µM
- TGI (MDA-MB-435): > 100 µM
- TGI (ACHN renal): 39.9 µM
- TGI (LOX IMVI melanoma): 34.2 µM
- TGI (SF-295 CNS): > 100 µM
- TGI (OVCAR-5 ovarian): > 100 µM
- TGI (PC-3 prostate): > 100 µM
- TGI (UO-31 renal): 7.88 µM
- TGI (MCF7 breast): 69.4 µM
- TGI (OVCAR-3 ovarian): 43.1 µM
- TGI (A549 NSCLC): > 100 µM
- TGI (OVCAR-8 ovarian): > 100 µM
- TGI (NCI-H23 lung): > 100 µM
- TGI (HT29 colon): 35.6 µM
- TGI (OVCAR-4 ovarian): > 100 µM
- TGI (UACC-257 melanoma): > 100 µM
- TGI (NCI/ADR-RES ovarian): > 100 µM
- TGI (CCRF-CEM leukemia): > 100 µM
- TGI (SN12C renal): 30.7 µM
- TGI (KM12 colon): > 100 µM
- TGI (MOLT-4 leukemia): 98.9 µM
- TGI (U251 CNS): 85.6 µM
- TGI (MDA-N): 49.7 µM
- TGI (T-47D breast): > 100 µM
- TGI (SW-620 colon): > 100 µM
- TGI (SF-268 CNS): > 100 µM
- TGI (NCI-H460 lung): 90.1 µM
- TGI (HS 578T breast): > 100 µM
- TGI (CAKI-1 renal): 31.9 µM
- TGI (DU-145 prostate): > 100 µM
- TGI (786-0 renal): 50 µM
- TGI (COLO 205 colon): 32 µM
- TGI (MDA-MB-231 breast): > 100 µM
- TGI (EKVX NSCLC): 67.2 µM
- TGI (NCI-H226 lung): > 100 µM
- TGI (SNB-75 CNS): > 100 µM
- TGI (SR leukemia): 54.1 µM
- TGI (M14 melanoma): 69.5 µM
- TGI (SK-OV-3 ovarian): > 100 µM
- TGI (SK-MEL-28 melanoma): > 100 µM
- TGI (BT-549 breast): > 100 µM
- TGI (HCT-116 colon): 44.5 µM
- TGI (HL-60(TB) leukemia): 51.2 µM
- TGI (HOP-62 NSCLC): > 100 µM
- TGI (HCT-15 colon): > 100 µM
- TGI (K-562 leukemia): 99.5 µM
- TGI (MALME-3M melanoma): > 100 µM
- TGI (TK-10 renal): 95.6 µM
- TGI (SF-539 CNS): 47.2 µM
- TGI (SK-MEL-5 melanoma): 30.4 µM
- TGI (HOP-92 NSCLC): > 100 µM
- TGI (RXF 393 renal): 53 µM
- TGI (NCI-H522 lung): > 100 µM
- TGI (A498 renal): > 100 µM
- TGI (SNB-19 CNS): > 100 µM
- TGI (SK-MEL-2 melanoma): 48.8 µM
- TGI (IGROV1 ovarian): > 100 µM

SMILES: C#CCn1c(=O)ccn(/C(=C\C(=O)OCC)C(=O)OCC)c1=O
- TGI (UACC-62 melanoma): 28.3 µM
- TGI (MDA-MB-435): 22.9 µM
- TGI (ACHN renal): 3.08 µM
- TGI (LOX IMVI melanoma): > 50.5 µM
- TGI (SF-295 CNS): 43.3 µM
- TGI (RPMI-8226 leukemia): > 23.9 µM
- TGI (OVCAR-5 ovarian): 30.9 µM
- TGI (PC-3 prostate): 29.4 µM
- TGI (UO-31 renal): 26.4 µM
- TGI (MCF7 breast): 9.78 µM
- TGI (OVCAR-3 ovarian): 16.3 µM
- TGI (A549 NSCLC): 43.8 µM
- TGI (OVCAR-8 ovarian): 5.42 µM
- TGI (NCI-H23 lung): 31.8 µM
- TGI (HT29 colon): 4.4 µM
- TGI (OVCAR-4 ovarian): 7.3 µM
- TGI (UACC-257 melanoma): 29.5 µM
- TGI (NCI/ADR-RES ovarian): 33.3 µM
- TGI (CCRF-CEM leukemia): > 20.9 µM
- TGI (SN12C renal): > 58 µM
- TGI (KM12 colon): 48.8 µM
- TGI (MOLT-4 leukemia): > 27.7 µM
- TGI (U251 CNS): 39.8 µM
- TGI (MDA-N): 35.1 µM
- TGI (T-47D breast): 12.7 µM
- TGI (SW-620 colon): 5.37 µM
- TGI (SF-268 CNS): 42.4 µM
- TGI (NCI-H460 lung): 7.76 µM
- TGI (HS 578T breast): 63.5 µM
- TGI (CAKI-1 renal): 2.4 µM
- TGI (DU-145 prostate): 31.1 µM
- TGI (786-0 renal): 6.05 µM
- GI50 (COLO 205 colon): 1.53 µM
- TGI (COLO 205 colon): 3.17 µM
- TGI (MDA-MB-231 breast): 41.9 µM
- TGI (EKVX NSCLC): 27.9 µM
- TGI (NCI-H226 lung): 40.4 µM
- TGI (SNB-75 CNS): 39.9 µM
- TGI (SR leukemia): > 43.5 µM
- TGI (M14 melanoma): 10.3 µM
- TGI (SK-OV-3 ovarian): > 59.9 µM
- TGI (SK-MEL-28 melanoma): 25.7 µM
- TGI (BT-549 breast): 25.4 µM
- TGI (HCT-116 colon): 16.5 µM
- TGI (HL-60(TB) leukemia): > 100 µM
- TGI (HOP-62 NSCLC): > 54.4 µM
- TGI (HCT-15 colon): 6.63 µM
- TGI (K-562 leukemia): > 100 µM
- TGI (MALME-3M melanoma): 4.99 µM
- TGI (TK-10 renal): 3.45 µM
- TGI (HCC-2998 colon): 35.9 µM
- TGI (SF-539 CNS): 4.64 µM
- TGI (SK-MEL-5 melanoma): 46.1 µM
- TGI (HOP-92 NSCLC): 4.5 µM
- TGI (RXF 393 renal): 4.84 µM
- TGI (A498 renal): 36 µM
- TGI (SNB-19 CNS): 36.4 µM
- TGI (SK-MEL-2 melanoma): 32.5 µM
- TGI (IGROV1 ovarian): 29.8 µM
